Biological target: T1, PIKfyve (Homo sapiens, UniProt Q9Y2I7)
T1 construct: T7 phage fusion (kinase-tagged phage) or DNA tag for qPCR; made in house; host or cells: E. coli BL21-derived host (T7 phage) for most kinases, HEK-293 for the rest
Experiment: Kinase binding assay (kinase-tagged T7 phage, affinity beads, qPCR readout), Kd determination
Settings: 11-point 3-fold dilution series
Method: Kinase assays. For most assays, kinase-tagged T7 phage strains were prepared in an E. coli host derived from the BL21 strain. E. coli were grown to log-phase and infected with T7 phage and incubated with shaking at 32° C. until lysis. The lysates were centrifuged and filtered to remove cell debris. The remaining kinases were produced in HEK-293 cells and subsequently tagged with DNA for qPCR detection. Streptavidin-coated magnetic beads were treated with biotinylated small molecule ligands for 30 minutes at room temperature to generate affinity resins for kinase assays. The liganded beads were blocked with excess biotin and washed with blocking buffer (SeaBlock (Pierce), 1% BSA, 0.05% Tween 20, 1 mM DTT) to remove unbound ligand and to reduce non-specific binding. Binding reactions were assembled by combining kinases, liganded affinity beads, and test compounds in 1× binding buffer (20% SeaBlock, 0.17×PBS, 0.05% Tween 20, 6 mM DTT). Test compounds were prepared as 111× stocks in 100% DMSO. Kds were determined using an 11-point 3-fold compound dilution series with three DMSO control points. All compounds for Kd measurements are distributed by acoustic transfer (non-contact dispensing) in 100% DMSO. The compounds were then diluted directly into the assays such that the final concentration of DMSO was 0.9%. All reactions performed in polypropylene 384-well plate. Each was a final volume of 0.02 ml. The assay plates were incubated at room temperature with shaking for 1 hour and the affinity beads were washed with wash buffer (1×PBS, 0.05% Tween 20). The beads were then re-suspended in elution buffer (1×PBS, 0.05% Tween 20, 0.5 μM non-biotinylated affinity ligand) and incubated at room temperature with shaking for 30 minutes. The kinase concentration in the eluates was measured by qPCR.
An 11-point 3-fold serial dilution of each test compound was prepared in 100% DMSO at 100× final test concentration and subsequently diluted to 1× in the assay (final DMSO concentration=1%). Most Kds were determined using a compound top concentration=30,000 nM. If the initial Kd determined was <0.5 nM (the lowest concentration tested), the measurement was repeated with a serial dilution starting at a lower top concentration.

T1 sequence (Q9Y2I7 whole entry, the tested form may be a part): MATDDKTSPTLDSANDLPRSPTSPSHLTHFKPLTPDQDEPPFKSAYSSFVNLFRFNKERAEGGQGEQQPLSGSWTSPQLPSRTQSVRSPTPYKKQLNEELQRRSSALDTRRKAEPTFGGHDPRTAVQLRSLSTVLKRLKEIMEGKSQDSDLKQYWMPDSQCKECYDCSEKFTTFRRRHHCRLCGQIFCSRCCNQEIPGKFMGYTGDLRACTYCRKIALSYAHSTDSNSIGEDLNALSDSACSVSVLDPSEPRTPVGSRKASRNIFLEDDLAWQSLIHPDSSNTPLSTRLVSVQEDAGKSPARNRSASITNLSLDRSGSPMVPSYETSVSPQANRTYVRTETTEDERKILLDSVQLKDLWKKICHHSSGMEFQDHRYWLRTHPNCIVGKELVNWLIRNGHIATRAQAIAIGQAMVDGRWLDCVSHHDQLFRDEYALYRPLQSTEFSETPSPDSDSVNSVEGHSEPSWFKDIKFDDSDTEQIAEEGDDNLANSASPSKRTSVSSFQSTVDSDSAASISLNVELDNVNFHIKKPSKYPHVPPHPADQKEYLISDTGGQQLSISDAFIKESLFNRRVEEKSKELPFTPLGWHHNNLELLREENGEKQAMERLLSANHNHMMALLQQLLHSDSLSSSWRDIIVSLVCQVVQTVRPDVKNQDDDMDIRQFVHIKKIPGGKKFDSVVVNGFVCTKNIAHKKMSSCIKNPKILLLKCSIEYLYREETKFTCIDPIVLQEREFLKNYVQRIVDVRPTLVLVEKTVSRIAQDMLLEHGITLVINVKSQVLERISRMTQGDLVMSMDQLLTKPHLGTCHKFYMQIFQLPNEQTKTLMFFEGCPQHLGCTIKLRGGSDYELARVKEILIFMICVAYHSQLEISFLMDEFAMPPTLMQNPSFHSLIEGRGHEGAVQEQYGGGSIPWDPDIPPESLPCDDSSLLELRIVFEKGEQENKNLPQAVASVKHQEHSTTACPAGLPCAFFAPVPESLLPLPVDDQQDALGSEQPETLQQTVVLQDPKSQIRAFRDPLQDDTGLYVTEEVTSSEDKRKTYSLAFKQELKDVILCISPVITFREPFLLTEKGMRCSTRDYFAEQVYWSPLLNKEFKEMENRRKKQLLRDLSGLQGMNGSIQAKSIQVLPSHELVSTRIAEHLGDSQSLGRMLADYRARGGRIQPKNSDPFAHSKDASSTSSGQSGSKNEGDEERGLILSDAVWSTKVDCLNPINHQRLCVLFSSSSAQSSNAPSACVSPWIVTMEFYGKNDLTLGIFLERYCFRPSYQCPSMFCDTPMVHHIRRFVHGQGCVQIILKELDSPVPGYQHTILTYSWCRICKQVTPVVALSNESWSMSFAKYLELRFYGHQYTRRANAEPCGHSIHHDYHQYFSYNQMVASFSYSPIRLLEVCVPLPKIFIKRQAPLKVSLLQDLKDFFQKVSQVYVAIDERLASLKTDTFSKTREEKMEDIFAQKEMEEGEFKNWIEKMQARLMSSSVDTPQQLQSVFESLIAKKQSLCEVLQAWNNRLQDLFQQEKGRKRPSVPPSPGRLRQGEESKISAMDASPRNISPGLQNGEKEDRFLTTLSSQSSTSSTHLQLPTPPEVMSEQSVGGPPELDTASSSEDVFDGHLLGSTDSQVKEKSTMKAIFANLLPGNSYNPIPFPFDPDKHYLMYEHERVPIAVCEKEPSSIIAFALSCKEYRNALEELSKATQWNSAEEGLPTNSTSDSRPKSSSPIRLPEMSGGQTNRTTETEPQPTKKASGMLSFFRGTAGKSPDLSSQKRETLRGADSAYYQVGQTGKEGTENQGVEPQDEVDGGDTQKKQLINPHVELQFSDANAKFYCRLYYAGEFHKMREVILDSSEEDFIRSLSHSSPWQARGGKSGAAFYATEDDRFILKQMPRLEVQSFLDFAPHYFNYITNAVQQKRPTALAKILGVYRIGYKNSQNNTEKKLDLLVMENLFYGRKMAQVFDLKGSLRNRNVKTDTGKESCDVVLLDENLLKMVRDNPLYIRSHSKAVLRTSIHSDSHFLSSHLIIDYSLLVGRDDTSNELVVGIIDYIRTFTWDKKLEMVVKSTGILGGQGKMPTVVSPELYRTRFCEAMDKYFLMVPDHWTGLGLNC

Structure (SMILES) | Kd [nM]
Cc1cccc(/C=N/Nc2cc(N3CCOCC3)n3nc(C(=O)NC4COC4)cc3n2)c1 [Example 41, 7-morpholino-5-[(2E)-2-(m-tolylmethylene)hydrazino]-N-(oxetan-3-yl)pyrazolo[1,5-a]pyrimidine-2-carboxamide] | ≤ 1
Cc1cccc(/C=N/Nc2cc(N3CCOCC3)n3nc(C(=O)NC4CC(F)(F)C4)cc3n2)c1 [Example 42, N-(3,3-difluorocyclobutyl)-7-morpholino-5-[(2E)-2-(m-tolylmethylene)hydrazino]pyrazolo[1,5-a]pyrimidine-2-carboxamide] | 1 to 5
